Data published in PubChem BioAssay (NCI).
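Dose response: 5 concentrations. Exposure: 48 h. Format: 96-well plates. Endpoint: linear interpolation; highest concentration if not reached. TGI is the concentration that stops growth completely.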

What was measured:
Assay in all cases: NCI tumour cell line growth inhibition, 48 h
RPMI-8226 leukemia = system: RPMI-8226 leukemia
DLD-1 colon = system: DLD-1 colon
LXFL 529 NSCLC = system: LXFL 529 NSCLC
HT29 colon = system: HT29 colon
HCC-2998 colon = system: HCC-2998 colon
NCI-H23 lung = system: NCI-H23 lung
EKVX NSCLC = system: EKVX NSCLC
A549 NSCLC = system: A549 NSCLC
KM12 colon = system: KM12 colon
SK-MEL-2 melanoma = system: SK-MEL-2 melanoma
786-0 renal = system: 786-0 renal
OVCAR-3 ovarian = system: OVCAR-3 ovarian
LOX IMVI melanoma = system: LOX IMVI melanoma
IGROV1 ovarian = system: IGROV1 ovarian
CAKI-1 renal = system: CAKI-1 renal
UO-31 renal = system: UO-31 renal
UACC-257 melanoma = system: UACC-257 melanoma
CCRF-CEM leukemia = system: CCRF-CEM leukemia
KM20L2 colon = system: KM20L2 colon
MALME-3M melanoma = system: MALME-3M melanoma
SW-620 colon = system: SW-620 colon
RXF 393 renal = system: RXF 393 renal
SF-268 CNS = system: SF-268 CNS
NCI-H460 lung = system: NCI-H460 lung
SN12C renal = system: SN12C renal
HOP-92 NSCLC = system: HOP-92 NSCLC
COLO 205 colon = system: COLO 205 colon
TK-10 renal = system: TK-10 renal
NCI-H522 lung = system: NCI-H522 lung
UACC-62 melanoma = system: UACC-62 melanoma
HL-60(TB) leukemia = system: HL-60(TB) leukemia
SK-OV-3 ovarian = system: SK-OV-3 ovarian
SK-MEL-28 melanoma = system: SK-MEL-28 melanoma
SNB-19 CNS = system: SNB-19 CNS
DMS 273 small cell lung = system: DMS 273 small cell lung
RXF-631 renal = system: RXF-631 renal
M19-MEL melanoma = system: M19-MEL melanoma
ACHN renal = system: ACHN renal
DMS 114 small cell lung = system: DMS 114 small cell lung
U251 CNS = system: U251 CNS
SNB-78 CNS = system: SNB-78 CNS
SNB-75 CNS = system: SNB-75 CNS
HOP-62 NSCLC = system: HOP-62 NSCLC
XF 498 CNS = system: XF 498 CNS
OVCAR-4 ovarian = system: OVCAR-4 ovarian
SK-MEL-5 melanoma = system: SK-MEL-5 melanoma
OVCAR-5 ovarian = system: OVCAR-5 ovarian
OVCAR-8 ovarian = system: OVCAR-8 ovarian
M14 melanoma = system: M14 melanoma
A498 renal = system: A498 renal
MOLT-4 leukemia = system: MOLT-4 leukemia
SF-295 CNS = system: SF-295 CNS
SF-539 CNS = system: SF-539 CNS
K-562 leukemia = system: K-562 leukemia
HCT-15 colon = system: HCT-15 colon
HCT-116 colon = system: HCT-116 colon
HOP-18 NSCLC = system: HOP-18 NSCLC
NCI-H226 lung = system: NCI-H226 lung

Cc1cc(OC(=O)c2c(C)cc(OC(=O)c3c(C)cc(O)cc3O)cc2O)cc(O)c1C(=O)O
TGI (RPMI-8226 leukemia): > 100 µM | TGI (DLD-1 colon): > 100 µM | TGI (LXFL 529 NSCLC): > 100 µM | TGI (HT29 colon): > 100 µM | TGI (HCC-2998 colon): > 100 µM | TGI (NCI-H23 lung): > 100 µM | TGI (EKVX NSCLC): > 100 µM | TGI (A549 NSCLC): > 100 µM | TGI (KM12 colon): > 100 µM | TGI (SK-MEL-2 melanoma): > 100 µM | TGI (786-0 renal): > 100 µM | TGI (OVCAR-3 ovarian): > 100 µM | TGI (LOX IMVI melanoma): > 100 µM | TGI (IGROV1 ovarian): > 100 µM | TGI (CAKI-1 renal): > 100 µM | TGI (UO-31 renal): > 100 µM | TGI (UACC-257 melanoma): > 100 µM | TGI (CCRF-CEM leukemia): > 100 µM | TGI (KM20L2 colon): > 100 µM | TGI (MALME-3M melanoma): > 100 µM | TGI (SW-620 colon): > 100 µM | TGI (RXF 393 renal): > 100 µM | TGI (SF-268 CNS): > 100 µM | TGI (NCI-H460 lung): > 100 µM | TGI (SN12C renal): > 100 µM | TGI (HOP-92 NSCLC): > 100 µM | TGI (COLO 205 colon): > 100 µM | TGI (TK-10 renal): > 100 µM | TGI (NCI-H522 lung): > 100 µM | TGI (UACC-62 melanoma): > 100 µM | TGI (HL-60(TB) leukemia): > 100 µM | TGI (SK-OV-3 ovarian): > 100 µM | TGI (SK-MEL-28 melanoma): > 100 µM | TGI (SNB-19 CNS): > 100 µM | TGI (DMS 273 small cell lung): > 100 µM | TGI (RXF-631 renal): > 100 µM | TGI (M19-MEL melanoma): > 100 µM | TGI (ACHN renal): > 100 µM | TGI (DMS 114 small cell lung): > 100 µM | TGI (U251 CNS): > 100 µM | TGI (SNB-78 CNS): > 100 µM | TGI (SNB-75 CNS): > 100 µM | TGI (HOP-62 NSCLC): > 100 µM | TGI (XF 498 CNS): > 100 µM | TGI (OVCAR-4 ovarian): > 100 µM | TGI (SK-MEL-5 melanoma): > 100 µM | TGI (OVCAR-5 ovarian): > 100 µM | TGI (OVCAR-8 ovarian): > 100 µM | TGI (M14 melanoma): > 100 µM | TGI (A498 renal): > 100 µM | TGI (MOLT-4 leukemia): > 100 µM | TGI (SF-295 CNS): > 100 µM | TGI (SF-539 CNS): > 100 µM | TGI (K-562 leukemia): > 100 µM

CC(C)=CC(=O)CC(=O)C(=O)NCCNC(=O)C(=O)CC(=O)C=C(C)C
TGI (RPMI-8226 leukemia): > 50 µM | TGI (DLD-1 colon): > 50 µM | TGI (LXFL 529 NSCLC): > 50 µM | TGI (HT29 colon): > 50 µM | TGI (HCC-2998 colon): > 50 µM | TGI (NCI-H23 lung): > 50 µM | TGI (EKVX NSCLC): > 50 µM | TGI (A549 NSCLC): > 50 µM | TGI (KM12 colon): > 50 µM | TGI (SK-MEL-2 melanoma): > 50 µM | TGI (786-0 renal): > 50 µM | TGI (HCT-15 colon): > 50 µM | TGI (OVCAR-3 ovarian): > 50 µM | TGI (LOX IMVI melanoma): > 50 µM | TGI (IGROV1 ovarian): > 50 µM | TGI (CAKI-1 renal): > 50 µM | TGI (UO-31 renal): > 50 µM | TGI (UACC-257 melanoma): > 50 µM | TGI (KM20L2 colon): > 50 µM | TGI (MALME-3M melanoma): > 50 µM | TGI (SW-620 colon): > 50 µM | TGI (RXF 393 renal): > 50 µM | TGI (SF-268 CNS): > 50 µM | TGI (NCI-H460 lung): > 50 µM | TGI (SN12C renal): > 50 µM | TGI (HCT-116 colon): > 50 µM | TGI (HOP-92 NSCLC): > 50 µM | TGI (COLO 205 colon): > 50 µM | TGI (TK-10 renal): > 50 µM | TGI (UACC-62 melanoma): > 50 µM | TGI (SK-OV-3 ovarian): > 50 µM | TGI (SK-MEL-28 melanoma): > 50 µM | TGI (SNB-19 CNS): > 50 µM | TGI (DMS 273 small cell lung): > 50 µM | TGI (M19-MEL melanoma): > 50 µM | TGI (HOP-18 NSCLC): > 50 µM | TGI (ACHN renal): > 50 µM | TGI (DMS 114 small cell lung): > 50 µM | TGI (U251 CNS): > 50 µM | TGI (SNB-78 CNS): > 50 µM | TGI (SNB-75 CNS): > 50 µM | TGI (NCI-H226 lung): > 50 µM | TGI (HOP-62 NSCLC): > 50 µM | TGI (XF 498 CNS): > 50 µM | TGI (OVCAR-4 ovarian): > 50 µM | TGI (OVCAR-5 ovarian): > 50 µM | TGI (OVCAR-8 ovarian): > 50 µM | TGI (M14 melanoma): > 50 µM | TGI (A498 renal): > 50 µM | TGI (SF-295 CNS): > 50 µM | TGI (SF-539 CNS): > 50 µM
